The values below come from patent US8802694B2, “3,6-diazabicyclo[3.1.1]heptanes as neuronal nicotinic acetycholine receptor ligands” (Targacept, Inc., priority 2009, dated 2014).

The Ki is the dissociation constant of the complex between target and ligand, obtained from inhibition or displacement.

Each structure is given as a SMILES string.

One test addresses T1, α6β3β4α5 (Homo sapiens, UniProt P30926+Q15825).
T1 construct: host or cells: SH-EP1
Put plainly: Competition binding to α6β3β4α5 receptors in membranes of SH-EP1/α6β3β4α5 cells ([3H]-epibatidine). The following applies: membrane competition binding, read-out: α6β3β4α5 Ki.
With `CCCC(=O)N1C2CNCC1C2`, the Ki is 230 nM.
In the case of `Cc1ncoc1C(=O)N1CC2CC(C1)N2`, the Ki is 11000 nM.
The same measure, in the same setting: the value for `O=C(c1cnco1)N1CC2CC(C1)N2` was 17000 nM.
On the same count and under the same terms, the value for `O=C(C1CC12CCC2)N1C2CNCC1C2` (stereo not shown) was 340 nM; that for `O=C(CC1CCC1)N1CC2CC(C1)N2` was 440 nM; that for `C/C=C/CCC(=O)N1CC2CC(C1)N2` was 540 nM.
Still for that read-out and setting: the value for `CC1(C)C(C(=O)N2CC3CC(C2)N3)C1(C)C` was 480 nM; that for `O=C(C1CC(F)(F)C1)N1C2CNCC1C2` was 510 nM.
Regarding `O=C(NCc1ccccc1)N1CC2CC(C1)N2`, the Ki came out at 400 nM.
Still for that read-out and setting: the value for `O=C(NCc1ccc(Cl)c(Cl)c1)N1CC2CC(C1)N2` was 120 nM.
On the same count and under the same terms, with `O=C(CC1CCOC1)N1C2CNCC1C2` (stereo not shown) the figure was 1600 nM; with `O=C(CC(F)(F)F)N1CC2CC(C1)N2` [3-(2,2,2-trifluoroethyl)carbonyl-3,6-diazabicyclo[3.1.1]heptane], 1700 nM; with `CC1(C)CC1C(=O)N1C2CNCC1C2` (stereo not shown), 800 nM.
The same measure, in the same setting: with `O=C(C1CC(F)(F)C1)N1CC2CC(C1)N2` the figure was 370 nM; with `O=C(c1cc(Br)co1)N1CC2CC(C1)N2` [3-(3-bromofuran-5-yl)carbonyl-3,6-diazabicyclo[3.1.1]heptane], 2700 nM; with `O=C(CC1CC1)N1C2CNCC1C2`, 310 nM.
Consider `O=C([C@H]1CCCO1)N1C2CNCC1C2`, for which the Ki is 1100 nM.
Same read-out and setting: the value for `O=C([C@@H]1C[C@@H]2C=C[C@H]1C2)N1CC2CC(C1)N2` was 1300 nM; that for `O=C(CC1CCCC1)N1C2CNCC1C2` was 360 nM; that for `O=C(CCC(F)(F)F)N1CC2CC(C1)N2` was 980 nM.
Same read-out and setting: with `O=C(NCc1ccc(Cl)cc1)N1CC2CC(C1)N2` the figure was 210 nM; with `CCC[C@H]1C[C@H]1C(=O)N1C2CNCC1C2`, 1100 nM; with `O=C(C1C2CCCCC21)N1CC2CC(C1)N2` (stereo not shown), 280 nM.
Same read-out and setting: with `O=C(CC1CCC1)N1C2CNCC1C2` the figure was 360 nM.
For the molecule `C[C@H]1C[C@@H]1C(=O)N1C2CNCC1C2`, the inhibition constant (Ki) was determined as 31000 nM.
Same read-out and setting: the value for `O=C(c1occc1Cl)N1CC2CC(C1)N2` [3-(3-chlorofuran-2-yl)carbonyl-3,6-diazabicyclo[3.1.1]heptane] was 2400 nM; that for `O=C(NCc1ccc(Cl)cc1)N1C2CNCC1C2` was 3400 nM.

Another test has as its target T2, Human α4β2 (Homo sapiens, UniProt P17787+P43681).
T2 construct: host or cells: SH-EP1
Put plainly: Competition binding to human α4β2 receptors in membranes of SH-EP1/human α4β2 cells ([3H]-nicotine). The settings on record: Human α4β2 Ki, membrane competition binding.
With `CCCC(=O)N1C2CNCC1C2`, the affinity, expressed as Ki, was 9.9 nM.
The molecule `O=C(c1cnco1)N1CC2CC(C1)N2` came in with a Ki of 28 nM.
The same measure, in the same setting: with `O=C(C1CC12CCC2)N1C2CNCC1C2` (stereo not shown) the figure was 38 nM; with `O=C(CC1CCC1)N1CC2CC(C1)N2`, 49 nM; with `C/C=C/CCC(=O)N1CC2CC(C1)N2`, 37 nM.
Still for that read-out and setting: with `O=C(C1CC(F)(F)C1)N1C2CNCC1C2` the figure was 54 nM; with `O=C(NCc1ccc(Cl)c(Cl)c1)N1CC2CC(C1)N2`, 90 nM.
Still for that read-out and setting: the value for `O=C(CC(F)(F)F)N1CC2CC(C1)N2` [3-(2,2,2-trifluoroethyl)carbonyl-3,6-diazabicyclo[3.1.1]heptane] was 11 nM.
The molecule `CC1(C)CC1C(=O)N1C2CNCC1C2` (stereo not shown) had an inhibitory constant (Ki) of 75 nM.
With `O=C(C1CC(F)(F)C1)N1CC2CC(C1)N2`, the Ki is 16 nM.
On the same count and under the same terms, with `O=C(c1cc(Br)co1)N1CC2CC(C1)N2` [3-(3-bromofuran-5-yl)carbonyl-3,6-diazabicyclo[3.1.1]heptane] the figure was 35 nM.
On the same count and under the same terms, the value for `O=C(CC1CC1)N1C2CNCC1C2` was 43 nM.
`O=C(CCC(F)(F)F)N1CC2CC(C1)N2` returned an inhibitory constant (Ki) of 74 nM.
On the same count and under the same terms, the value for `O=C(C1C2CCCCC21)N1CC2CC(C1)N2` (stereo not shown) was 78 nM.
On the same count and under the same terms, with `O=C(CC1CCC1)N1C2CNCC1C2` the figure was 53 nM.

Still in this test, the particulars now being: membrane competition binding, read-out: Human α4β2 Ki.
In the case of `CC1(C)C(C(=O)N2CC3CC(C2)N3)C1(C)C`, the Ki is 140 nM.
With `O=C(NCc1ccccc1)N1CC2CC(C1)N2`, the Ki turned out to be 270 nM.
Same read-out and setting: the value for `O=C(CC1CCOC1)N1C2CNCC1C2` (stereo not shown) was 330 nM; that for `O=C([C@H]1CCCO1)N1C2CNCC1C2` was 390 nM.
Regarding `O=C([C@@H]1C[C@@H]2C=C[C@H]1C2)N1CC2CC(C1)N2`, the Ki worked out at 160 nM.
On the same count and under the same terms, with `O=C(CC1CCCC1)N1C2CNCC1C2` the figure was 220 nM; with `O=C(NCc1ccc(Cl)cc1)N1CC2CC(C1)N2`, 110 nM.
Still for that read-out and setting: the value for `CCC[C@H]1C[C@H]1C(=O)N1C2CNCC1C2` was 570 nM; that for `C[C@H]1C[C@@H]1C(=O)N1C2CNCC1C2` was 210 nM; that for `O=C(NCc1ccc(Cl)cc1)N1C2CNCC1C2` was 6500 nM.

The test is the same for the next values; noted with them: read-out: Human α4β2 Ki, membrane competition binding.
In the case of `O=C(c1occc1Cl)N1CC2CC(C1)N2` [3-(3-chlorofuran-2-yl)carbonyl-3,6-diazabicyclo[3.1.1]heptane], the inhibition constant Ki is 7.9 nM.

The next test addresses T3, Rat α4β2 (Rattus norvegicus, UniProt P09483+P12390).
T3 construct: Rat cortices were obtained from Analytical Biological Services; tissue Analytical Biological Services, Incorporated (ABS, Wilmington, Del.); host or cells: rat cortex (female Sprague-Dawley)
Put plainly: Competition binding to rat α4β2 receptors in rat cortical membranes. The following applies: Rat α4β2 Ki, rat cortex membranes. How it is done:
Preparation of membranes from rat tissues. Rat cortices were obtained from Analytical Biological Services, Incorporated (ABS, Wilmington, Del.). Tissues were dissected from female Sprague-Dawley rats, frozen and shipped on dry ice. Tissues were stored at −20° C. until needed for membrane preparation. […] The resulting homogenate was centrifuged at 40,000 g for 20 minutes at 4° C. and the resulting pellet was resuspended in 20 volumes of ice-cold water. After 60-minute incubation at 4° C., a new pellet was collected by centrifugation at 40,000 g for 20 minutes at 4° C. The final pellet was resuspended in preparative buffer and stored at −20° C. On the day of the assay, tissue was thawed, centrifuged at 40,000 g for 20 minutes and then resuspended in PBS (Dulbecco's Phosphate Buffered Saline, Life Technologies, pH 7.4) to a final concentration of 2-3 mg protein/mL. Protein concentrations were determined using the Pierce BCA Protein Assay kit (Pierce Biotechnology, Rockford, Ill.), with bovine serum albumin as the standard.
Competition binding to receptors in membrane preparations. […] In brief, membranes were reconstituted from frozen stocks (approximately 0.2 mg protein) and incubated for 2 h on ice in […] assay buffer (PBS) in the presence of competitor compound (0.001 nM to […]) and radioligand. [^3H]-nicotine (L-(−)-[N-methyl-3H]-nicotine, 69.5 Ci/mmol, Perkin-Elmer Life Sciences) was used for human α4β2 binding studies. [^3H]-epibatidine (52 Ci/mmol, Perkin-Elmer Life Sciences) was used for binding studies at the other receptor subtypes. […] Filters were washed 3 times and the radioactivity retained was determined by liquid scintillation counting.
Binding data analysis. Binding data were expressed as percent total control binding. Replicates for each point were averaged and plotted against the log of drug concentration.
In the case of `CCCC(=O)N1C2CNCC1C2`, the affinity corresponds to a Ki of 5.1 nM.
On the same count and under the same terms, with `Cc1ncoc1C(=O)N1CC2CC(C1)N2` the figure was 38 nM.
Regarding `O=C(c1cnco1)N1CC2CC(C1)N2`, affinity was put at a Ki of 0.18 nM.
Still for that read-out and setting: the value for `O=C(C1CC12CCC2)N1C2CNCC1C2` (stereo not shown) was 32 nM; that for `O=C(CC1CCC1)N1CC2CC(C1)N2` was 34 nM; that for `C/C=C/CCC(=O)N1CC2CC(C1)N2` was 25 nM.
For `O=C(C1CC(F)(F)C1)N1C2CNCC1C2`, affinity was put at a Ki of 16 nM.
Still for that read-out and setting: with `O=C(NCc1ccc(Cl)c(Cl)c1)N1CC2CC(C1)N2` the figure was 71 nM.
In turn, `O=C(CC(F)(F)F)N1CC2CC(C1)N2` [3-(2,2,2-trifluoroethyl)carbonyl-3,6-diazabicyclo[3.1.1]heptane] registered an inhibition constant (Ki) of 25 nM.
Same read-out and setting: with `CC1(C)CC1C(=O)N1C2CNCC1C2` (stereo not shown) the figure was 45 nM.
Same read-out and setting: the value for `O=C(C1CC(F)(F)C1)N1CC2CC(C1)N2` was 19 nM.
In turn, `O=C(c1cc(Br)co1)N1CC2CC(C1)N2` [3-(3-bromofuran-5-yl)carbonyl-3,6-diazabicyclo[3.1.1]heptane] had a Ki of 80 nM.
Still for that read-out and setting: with `O=C(CC1CC1)N1C2CNCC1C2` the figure was 27 nM; with `O=C(CC1CCCC1)N1C2CNCC1C2`, 100 nM.
Molecule `O=C(CCC(F)(F)F)N1CC2CC(C1)N2` gave a Ki of 63 nM.
Consider `O=C(NCc1ccc(Cl)cc1)N1CC2CC(C1)N2`, for which affinity was put at a Ki of 4 nM.
Same read-out and setting: the value for `O=C(C1C2CCCCC21)N1CC2CC(C1)N2` (stereo not shown) was 30 nM; that for `O=C(CC1CCC1)N1C2CNCC1C2` was 30 nM.

The test is the same for the next values; noted with them: rat cortex membranes, read-out: Rat α4β2 Ki.
Turning to `CC1(C)C(C(=O)N2CC3CC(C2)N3)C1(C)C`, the inhibition constant (Ki) worked out at 710 nM.
On the same count and under the same terms, the value for `O=C(NCc1ccccc1)N1CC2CC(C1)N2` was 200 nM.
As for `O=C(CC1CCOC1)N1C2CNCC1C2` (stereo not shown), the inhibition constant Ki worked out at 130 nM.
On the same count and under the same terms, with `O=C([C@@H]1C[C@@H]2C=C[C@H]1C2)N1CC2CC(C1)N2` the figure was 210 nM.

Still in this test, the particulars now being: read-out: Rat α4β2 Ki, rat cortex membranes.
`O=C(c1occc1Cl)N1CC2CC(C1)N2` [3-(3-chlorofuran-2-yl)carbonyl-3,6-diazabicyclo[3.1.1]heptane]: the Ki was 56 nM.
